We go through four compounds from PMC12308784, “Organometallic Half-Sandwich Complexes of 1,10-Phenanthroline Derivatives with Improved Solubility, Albumin-Binding, and Nanoformulation Potential Targeting Drug Resistance in Cancer” (Inorganic Chemistry, 2025).

Series [1] is described as follows: H2O/Cl– co-ligand exchange constant by UV–vis spectrophotometry. In kind it is physicochemical. The settings on record: pH = 6.0, 20 mM phosphate buffer; t = 25 °C. The method, then: The coordinated chlorido ligand can undergo spontaneous partial exchange upon dissolution, making it essential to determine the equilibrium constant for the [M(η^6-arene/η^5-arenyl)(ligand)-Cl]^+ + H2O ⇌ [M(η^6-arene/η^5-arenyl)(ligand)(H2O)]^2+ + Cl^– process (or for the reverse direction) to evaluate the ratio of chlorido to aqua complexes. The logK′ (H2O/Cl^–) constants were determined by UV–vis spectrophotometry (Figure ) due to the changes in the charge transfer bands. […] Importantly, this process is slow for the RuCym complexes, which requires a longer time to reach equilibrium, necessitating careful equilibration in experimental setups before further analysis. Therefore, in the case of the RuCym complexes, individual samples were prepared and their spectra were measured after 1 h, while the spectra for the RhCp* complexes were obtained by direct titration with the KCl solution. The appearance of isosbestic points in the spectra confirms the clear equilibrium between chlorido- and aqua complexes.
4 (a) Changes in the UV–vis spectra of complex RuCymBP due to the H2O/Cl^– coligand exchange process, (b) with absorbance variation at 357 nm plotted as a function of the chloride concentration (○) with the fitted curve (dashed line). Individual samples were prepared and the spectra were recorded after 1 h waiting time. {c complex = 28 μM; c Cl– = 56 μM – 0.29 M; t = 25 °C; pH = 6.0 (20 mM phosphate buffer)}.
An Agilent Cary 8454 diode array spectrophotometer was utilized to obtain UV–vis spectra in the wavelength range 190–1100 nm; the path length was 1 cm. The concentrations of the complexes were between 20 and 100 μM. The actual pH of the samples were measured with an Orion 710A pH-meter equipped with a Metrohm combined electrode (type 6.0234.100) and the pH titrations were performed by a KOH solution using a Metrohm 665 Dosimat buret at 25.0 °C. […] The computer program HypSpec was used to calculate the equilibrium constants.

In series [2] the target is T1, human serum albumin (HSA) (Homo sapiens, UniProt P02768).
T1 construct: purchased Sigma-Aldrich A8763
In words: HSA binding by capillary zone electrophoresis (CZE). The settings on record: for equiv of complex bound on HSA: CZE. As for the experimental part:
UV–vis is a simple technique to follow the interaction of half-sandwich metal complexes with HSA in time. Charge transfer bands of the complexes were monitored over a 12 h period (as shown for the RhCp*BP – HSA (1.5:1) system in Figure S16). An initial rapid spectral change can be observed, which is followed by a slower spectral evolution. This phenomenon may indicate (i) a rapid binding interaction followed by a slow rearrangement of the coordination sphere around the Rh center or (ii) that the differing accessibility of binding sites results in biphasic binding kinetics. […] In contrast, minimal spectral changes were detected for the RuCym complexes. […] To further substantiate this observation, CZE was applied. In Figure , the peak of the free RhCp*BP complex is clearly separated from the peaks of the comigrating protein and the protein-bound complex. […] Whereas ca. 50% of the complex is protein-bound after the first 5 min, the equilibration takes ca. 3–4 h. This observation confirms that the accessibility of binding sites for the complexes is not equal in HSA.
6 (a) Electropherograms of the RhCp*BP complex in the absence and presence of 0.5 equiv HSA at pH = 7.4 followed in time and (b) the relative peak area of free RhCp*BP at 210 nm (migration time: 7.4 min) as a function of incubation time. {c complex = 95 μM, c HSA = 48 μM; U = 8 kV; current = 105 μA; PBS’; t = 25 °C}.
The interaction of complex [RhCp*(BP)-Cl]Cl (ca. 100 μM) with HSA (ca. 50 μM) in PBS’ medium was studied by an Agilent 7100 capillary electrophoresis system equipped with a diode-array UV–vis detector (200–600 nm). Fused silica capillaries of 48 cm total length with a 75 μm inner diameter were used (Agilent Technologies). The background electrolyte (BGE) was PBS’ buffer (pH = 7.4), in which the samples were also made. The conditioning process of new capillaries and daily preparation were performed as described formerly. In order to ensure a steady baseline, the capillary was flushed with BGE (2 min) before each run and was rinsed with NaOH (0.1 M; 1.5 min), H2O (1.5 min), and then with BGE (2 min) after each run. The capillary cassette was kept at 25 °C. The hydrodynamic injection was used at 50 mbar for 5 s injection time. For separation, an 8 kV voltage (with ca. 100 μA current) was applied. The sample run time was set to 18 min. The computer program ChemStation (Agilent) was used to record electropherograms.

Series [3] is described as follows: release in PBS’ by modified equilibrium dialysis. In kind it is physicochemical. The settings on record: nonformulated complex, PBS’ pH 7.4. The method, then:
The release behavior of RhCp*BP in PBS’ buffer (pH = 7.4) was monitored using a modified equilibrium dialysis device (Figures S22 and S23), and the absorbance (proportional to the complex concentration) was measured for the dialysate phase by online UV–vis spectrophotometry over a period of 16 h.
The release experiments were conducted in PBS’ medium using modified rapid equilibrium dialysis (RED) inserts of Thermo Scientific. Briefly, the receiver compartment of the RED insert was removed in order to fit the dialysis bag into a regular 1 cm quartz cuvette (see Figure S19 for the layout). The dialysis bag (donor compartment) contained 300 μL of aqueous solution of the formulation or the metal complex alone (c = 60 μM) or the HSA or HTP-based formulations. The cuvette was the acceptor/receiver compartment containing PBS’ buffer (2.0 mL). The whole device was capped with the parafilm and the buffer in the cuvette was continuously stirred; no stirring was applied in the RED insert. The release of the complex into the buffer was monitored online using an Agilent Cary 3500 eight-channel photometer. All samples were done in duplicate.
(In general: In equilibrium dialysis only unbound substance equilibrates across the membrane.)

Series [4] in a line: time-dependent stability in PBS’ by UV–vis and 1H NMR. In kind it is physicochemical. To be noted: pH 7.4, 100 mM chloride. The method, then: As a first step, time-dependent stability measurements were conducted by UV–visible (UV–vis) for all the metal complexes (Figure S13), focusing on their stability in a modified phosphate buffer saline (PBS’) medium to mimic conditions relevant to intravenous applications regarding the pH (7.4) and the chloride ion concentration (100 mM). […] Unfortunately, determining the equilibrium constants for direct complex formation was not possible due to the poor solubility of the ligands in water. […] The robust stability of the analogous IrCp* complexes was also reported.
Figure S14. Time-dependent UV -Vis spectra of metal complexes (a) cRuCymBP = 69 µM; (b) cRhCp*BP =
66 µM; (c) cRuCymDCP = 99 µM; (d) cRhCp*DCP = 85 µM) in PBS' buffer over 24 h (a-d). Spectra were recorded
Figure S15. Time-dependent 1H NMR spectra of metal complex RhCp*BP (66 µM) at pH 7.40 over 5 days.
{10% (v/v) D2O / 90% (v/v) H2O; PBS’; t = 25 °C} […]

[5] abbreviates: 0.5 equiv HSA, PBS’ pH 7.4, 25 °C.
The mark [6] stands for this setting: c complex = 95 μM, c HSA = 48 μM, PBS’ pH 7.4, 25 °C.

T1 sequence (P02768 25-609): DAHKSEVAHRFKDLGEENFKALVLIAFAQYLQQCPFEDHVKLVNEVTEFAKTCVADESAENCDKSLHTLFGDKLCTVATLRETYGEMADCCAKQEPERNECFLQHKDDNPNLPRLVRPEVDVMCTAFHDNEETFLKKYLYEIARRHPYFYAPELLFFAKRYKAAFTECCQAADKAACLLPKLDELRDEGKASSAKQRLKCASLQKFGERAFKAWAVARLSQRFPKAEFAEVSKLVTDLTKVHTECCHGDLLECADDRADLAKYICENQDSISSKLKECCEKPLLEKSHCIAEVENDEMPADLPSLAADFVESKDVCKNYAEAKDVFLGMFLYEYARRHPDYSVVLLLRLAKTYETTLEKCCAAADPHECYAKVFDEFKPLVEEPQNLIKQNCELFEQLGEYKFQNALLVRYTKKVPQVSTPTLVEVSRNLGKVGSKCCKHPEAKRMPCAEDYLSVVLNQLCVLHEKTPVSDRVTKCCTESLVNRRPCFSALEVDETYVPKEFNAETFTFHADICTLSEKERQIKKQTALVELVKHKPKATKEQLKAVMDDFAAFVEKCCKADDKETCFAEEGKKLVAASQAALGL

For `Cc1c(C)c(C)[c-](C)c1C.Clc1ccnc2c1ccc1c(Cl)ccnc12.[Cl-].[Cl-].[Rh+3]` [RhCp*DCP, [Rh(III)(η^5-C5Me5)(4,7-dichloro-1,10-phenanthroline)Cl]Cl], the “logK′ (H2O/Cl–)” value in series [1] was 2.85 ± 0.01 ^b. Besides, in series [2] (setting [5]), the “metal complex unbound after 24 h” value was 21%. For the same compound, the “equiv of complex bound on HSA” value in series [2] is on record as “at least 2 equiv”.

As to `Cc1ccc(C(C)C)cc1.[Cl-].[Cl-].[Ru+2].c1ccc(-c2ccnc3c2ccc2c(-c4ccccc4)ccnc23)cc1` [RuCymBP, [Ru(II)(η^6-p-cymene)(bathophenanthroline)Cl]Cl], the “logK′ (H2O/Cl–)” value in series [1] is on record as 2.31 ± 0.13.

`Cc1ccc(C(C)C)cc1.Clc1ccnc2c1ccc1c(Cl)ccnc12.[Cl-].[Cl-].[Ru+2]` [RuCymDCP, [Ru(II)(η^6-p-cymene)(4,7-dichloro-1,10-phenanthroline)Cl]Cl]: the “logK′ (H2O/Cl–)” value in series [1] came to 2.31 ± 0.03.

On to “[Rh(III)(η^5-C5Me5)(bathophenanthroline)Cl]Cl [RhCp*BP]”, for which the “logK′ (H2O/Cl–)” value in series [1] is on record as 2.98 ± 0.01. Besides, in series [3], the “time for complete diffusion into PBS’ medium” value is recorded as “approximately 9 h”. Besides, the “stability in PBS’ over 24 h” value in series [4] was “no changes”. The “free complex after 4 h” value in series [2] (setting [5]) came to 7%. Besides, the “equiv of complex bound on HSA” value in series [2] was “at least 2 equiv”. In series [2] (setting [6]), the “complex protein-bound after the first 5 min” value is listed as “ca. 50%” and the “equilibration time of HSA binding” value lay within 3 to 4 h.
